Assay results published in patent US20050142104A1, “Methods of using and compositions comprising PDE4 modulators for the treatment and management of asbestos-related diseases and disorders” (priority 2003, published 2005).

Key:
[1] = system: TNF-α production; assay: In vitro studies: inhibition of TNF-α production following LPS-stimulation of human PBMC and human whole blood; format: cell-based; settings: comparator thalidomide
Description: In a specific embodiment, the pharmacological properties of 3-(3,4-dimethoxy-phenyl)-3-(1-oxo-1,3-dihydro-isoindol-2-yl)-propionamide are characterized in in vitro studies. Studies examine the effects of the compound on the production of various cytokines. Inhibition of TNF-α production following LPS-stimulation of human PBMC and human whole blood by the compound is investigated in vitro. The IC50's of the compound for inhibiting production of TNF-α are measured. […] The pharmacological effects of 3-(3,4-dimethoxy-phenyl)-3-(1-oxo-1,3-dihydro-isoindol-2-yl)-propionamide may derive from its action as an inhibitor of the generation of inflammatory cytokines.

[2] = Clinical studies in unresectable or relapsed mesothelioma patients; format: in vivo, human; settings: 400 mg as a continuous oral daily dose; mesothelioma patients not responding to conventional therapy
Description: Clinical trials with the administration of a PDE4 modulator in an amount of from about 1 mg to about 1,000 mg, from about 1 mg to about 500 mg, or from about 1 mg to about 250 mg per day are conducted in patients with asbestosis, malignant mesothelioma, or malignant pleural effusion mesothelioma syndrome. In a specific embodiment, patients receive about 1 mg to about 1000 mg/day of 3-(3,4-dimethoxy-phenyl)-3-(1-oxo-1,3-dihydro-isoindol-2-yl)-propionamide alone or in combination with vinorelbine. Patients who experience clinical benefit are permitted to continue on treatment.
Other clinical studies are performed using 3-(3,4-dimethoxy-phenyl)-3-(1-oxo-1,3-dihydro-isoindol-2-yl)-propionamide in unresectable or relapsed mesothelioma patients that have not responded to conventional therapy. In one embodiment, 3-(3,4-dimethoxy-phenyl)-3-(1-oxo-1,3-dihydro-isoindol-2-yl)-propionamide is administered in an amount of about 1 mg to about 1,000 mg/day to the patients. Treatment with 400 mg as a continuous oral daily dose is well-tolerated.

## COc1ccc(C(CC(N)=O)N2Cc3ccccc3C2=O)cc1OC (centres unmarked) [3-(3,4-Dimethoxy-phenyl)-3-(1-oxo-1,3-dihydro-isoindol-2-yl)-propionamide]
[1]
  pharmacological activity profile, potency relative to thalidomide: five to fifty times more potent than thalidomide
[2]
  tolerability: well-tolerated
